In patent US10165776B2, “Substituted pyrazolylpyrazole derivative and use of same as herbicide” (KYOYU AGRI CO., LTD., priority 2015, dated 2019):

Experiments:
Type in all cases: in vivo
Echinochloa crus-galli = assay: Paddy herbicidal activity test; conditions: irrigated pot, treated at 3.5 leaf stage of Echinochloa crus-galli, 30 days at 30° C.
Method: (§1) Rice paddy soil was filled into a 1/10000 are pot followed by the addition of suitable amounts of water and chemical fertilizer, kneading, seeding with Echinochloa crus-galli, Monochoria vaginalis and Scirpus juncoides and maintaining in an irrigated state at a water depth of 3 cm. Wettable powders of Target Compound (I) shown in Table 1 prepared in compliance with the preparation examples were diluted with a suitable amount of water, rice plants in the 2.0 leaf stage were transplanted during 3.5 leaf stage of Echinochloa crus-galli, and treated by dropping in chemical in the prescribed amount per 10 are using a pipette. After treating for 30 days in a glass greenhouse at an average atmospheric temperature of 30° C., the herbicidal efficacy thereof was investigated. Evaluation of herbicidal efficacy was carried out by comparing growth inhibition rate (%) with an untreated group, while evaluation of phytotoxicity was carried out by comparing growth inhibition rate (%) with the state of a complete eradication group, and were evaluated at 11 levels indicated below.

Monochoria vaginalis = assay: Paddy herbicidal activity test; conditions: irrigated pot, treated at 3.5 leaf stage of Echinochloa crus-galli, 30 days at 30° C.
Method: as §1

Scirpus juncoides = assay: Paddy herbicidal activity test; conditions: irrigated pot, treated at 3.5 leaf stage of Echinochloa crus-galli, 30 days at 30° C.
Method: as §1

Oryza sativa = assay: Paddy herbicidal activity test, phytotoxicity to transplanted rice; conditions: rice transplanted at 2.0 leaf stage, 30 days at 30° C.
Method: as §1

Amaranthus retroflexus [1] = assay: Farming soil treatment test; conditions: soil surface spray prior to weed growth, 30 days at 30° C.
Method: (§2) Field soil was filled into a 1/6000 are pot followed by seeding with Digitaria ciliaris, Chenopodium album and Amaranthus retroflexus and covering with soil. Wettable powders of compounds of formula (I) shown in Table 1 prepared in compliance with the preparation examples were diluted with water to the prescribed amount of chemical and uniformly sprayed onto each soil surface layer using 100 liters of sprayed water per 10 are prior to weed growth following seeding. After treating for 30 days in a glass greenhouse at an average atmospheric temperature of 30° C., the herbicidal efficacy thereof was investigated. Evaluation of herbicidal efficacy was carried out in the same manner as the above-mentioned Test Example 1.

Chenopodium album [2] = assay: Farming soil treatment test; conditions: soil surface spray prior to weed growth, 30 days at 30° C.
Method: as §2

Digitaria ciliaris [3] = assay: Farming soil treatment test; conditions: soil surface spray prior to weed growth, 30 days at 30° C.
Method: as §2

Amaranthus retroflexus [4] = assay: Weed foliar treatment test (Test 3, 1.0 to 2.0 leaf stage); conditions: foliar spray at 1.0 to 2.0 leaf stage of Digitaria ciliaris, 3 weeks at 25° C.
Method: (§3) Soil was filled into a 1/6000 are pot followed by seeding with Digitaria ciliaris, Chenopodium album and Amaranthus retroflexus, covering with soil, and cultivating in a glass greenhouse at an average atmospheric temperature of 25° C. Wettable powders of Target Compound (I) shown in Table 1 prepared in compliance with the preparation examples were diluted with water to the prescribed amount of chemical and uniformly sprayed onto the weeds using 150 liters of sprayed water per 10 are when Digitaria ciliaris had grown to the 1.0 to 2.0 leaf stage. After treating for 3 weeks in a glass greenhouse at an average atmospheric temperature of 25° C., the herbicidal efficacy thereof was investigated. Evaluation of herbicidal efficacy was carried out in the same manner as the above-mentioned Test Example 1.

Chenopodium album [5] = assay: as above; conditions: foliar spray at 1.0 to 2.0 leaf stage of Digitaria ciliaris, 3 weeks at 25° C.
Method: as §3

Digitaria ciliaris [6] = assay: as above; conditions: foliar spray at 1.0 to 2.0 leaf stage of Digitaria ciliaris, 3 weeks at 25° C.
Method: as §3

Digitaria ciliaris [7] = assay: Weed foliar treatment test (Test 4, 4.0 to 5.0 leaf stage); conditions: 10 g a.i./10 a; foliar spray at 4.0 to 5.0 leaf stage of Digitaria ciliaris (plant height 10 cm to 15 cm); 20 days at 25° C.
Method: (§4) Field soil was filled into a 1/4500 are pot followed by seeding with Digitaria ciliaris and Galinsoga parviflora, covering with soil and cultivating in a glass greenhouse at an average atmospheric temperature of 25° C. Wettable powders of Target Compound (I) shown in Table 1 prepared in compliance with the preparation examples were diluted with water to the prescribed amount of chemical and uniformly sprayed onto the weeds using 100 liters of sprayed water per 10 are when Digitaria ciliaris had grown to the 4.0 to 5.0 leaf stage (plant height: 10 cm to 15 cm). After treating for 20 days in a glass greenhouse at an average atmospheric temperature of 25° C., the herbicidal efficacy thereof was investigated. Evaluation of herbicidal efficacy was carried out in the same manner as the above-mentioned Test Example 1.

Galinsoga parviflora = assay: as above; conditions: 10 g a.i./10 a; foliar spray at 4.0 to 5.0 leaf stage of Digitaria ciliaris (plant height 10 cm to 15 cm); 20 days at 25° C.
Method: as §4

| Compound | herbicidal efficacy, Echinochloa crus-galli (Echinochloa crus-galli; 1 g a.i./10 a) | herbicidal efficacy, Echinochloa crus-galli (Echinochloa crus-galli; 5 g a.i./10 a) | herbicidal efficacy, Monochoria vaginalis (Monochoria vaginalis; 1 g a.i./10 a) | herbicidal efficacy, Monochoria vaginalis (Monochoria vaginalis; 5 g a.i./10 a) | herbicidal efficacy, Scirpus juncoides (Scirpus juncoides; 1 g a.i./10 a) | herbicidal efficacy, Scirpus juncoides (Scirpus juncoides; 5 g a.i./10 a) | phytotoxicity, Oryza sativa (Oryza sativa; 1 g a.i./10 a) | phytotoxicity, Oryza sativa (Oryza sativa; 5 g a.i./10 a) | herbicidal efficacy, Amaranthus retroflexus (Amaranthus retroflexus [1]; 5 g a.i./10 a) | herbicidal efficacy, Amaranthus retroflexus (Amaranthus retroflexus [1]; 10 g a.i./10 a) | herbicidal efficacy, Chenopodium album (Chenopodium album [2]; 5 g a.i./10 a) | herbicidal efficacy, Chenopodium album (Chenopodium album [2]; 10 g a.i./10 a) | herbicidal efficacy, Digitaria ciliaris (Digitaria ciliaris [3]; 5 g a.i./10 a) | herbicidal efficacy, Digitaria ciliaris (Digitaria ciliaris [3]; 10 g a.i./10 a) | herbicidal efficacy, Amaranthus retroflexus (Amaranthus retroflexus [4]; 5 g a.i./10 a) | herbicidal efficacy, Amaranthus retroflexus (Amaranthus retroflexus [4]; 10 g a.i./10 a) | herbicidal efficacy, Chenopodium album (Chenopodium album [5]; 5 g a.i./10 a) | herbicidal efficacy, Chenopodium album (Chenopodium album [5]; 10 g a.i./10 a) | herbicidal efficacy, Digitaria ciliaris (Digitaria ciliaris [6]; 5 g a.i./10 a) | herbicidal efficacy, Digitaria ciliaris (Digitaria ciliaris [6]; 10 g a.i./10 a) | also measured |
| --- | --- | --- | --- | --- | --- | --- | --- | --- | --- | --- | --- | --- | --- | --- | --- | --- | --- | --- | --- | --- | --- |
| Cc1cccc(CC(=O)Nc2c(C#N)cnn2-c2nn3c(c2Cl)CCCC3)c1 [Compound 9] | 9 (9: 90% to less than 100%) | 9 (9: 90% to less than 100%) | 9 (9: 90% to less than 100%) | 10 (10: 100%) | 9 (9: 90% to less than 100%) | 9 (9: 90% to less than 100%) | 0 (0 (exponent): 0% to less than 10% (growth inhibition rate)) | 0 (0 (exponent): 0% to less than 10% (growth inhibition rate)) | 9 (9: 90% to less than 100%) | 10 (10: 100%) | 9 (9: 90% to less than 100%) | 10 (10: 100%) | 9 (9: 90% to less than 100%) | 9 (9: 90% to less than 100%) | 10 (10: 100%) | 10 (10: 100%) | 10 (10: 100%) | 10 (10: 100%) | 10 (10: 100%) | 10 (10: 100%) | herbicidal efficacy, Digitaria ciliaris (Digitaria ciliaris [7]): 10 (10: 100%); herbicidal efficacy, Galinsoga parviflora (Galinsoga parviflora): 10 (10: 100%) |
| N#Cc1cnn(-c2nn3c(c2Cl)CCCC3)c1NC(=O)Cc1cccc(F)c1 [Compound 11] | 9 (9: 90% to less than 100%) | 10 (10: 100%) | 9 (9: 90% to less than 100%) | 9 (9: 90% to less than 100%) | 9 (9: 90% to less than 100%) | 10 (10: 100%) | 0 (0 (exponent): 0% to less than 10% (growth inhibition rate)) | 1 (1: 10% to less than 20%) | 9 (9: 90% to less than 100%) | 9 (9: 90% to less than 100%) | 10 (10: 100%) | 10 (10: 100%) | 9 (9: 90% to less than 100%) | 10 (10: 100%) | 10 (10: 100%) | 10 (10: 100%) | 10 (10: 100%) | 10 (10: 100%) | 10 (10: 100%) | 10 (10: 100%) | herbicidal efficacy, Digitaria ciliaris (Digitaria ciliaris [7]): 10 (10: 100%); herbicidal efficacy, Galinsoga parviflora (Galinsoga parviflora): 10 (10: 100%) |
| N#Cc1cnn(-c2nn3c(c2Cl)CCCC3)c1NC(=O)Cc1ccc(F)cc1 [Compound 15] | 10 (10: 100%) | 10 (10: 100%) | 10 (10: 100%) | 10 (10: 100%) | 9 (9: 90% to less than 100%) | 10 (10: 100%) | 1 (1: 10% to less than 20%) | 1 (1: 10% to less than 20%) | 10 (10: 100%) | 10 (10: 100%) | 10 (10: 100%) | 10 (10: 100%) | 9 (9: 90% to less than 100%) | 10 (10: 100%) | 10 (10: 100%) | 10 (10: 100%) | 10 (10: 100%) | 10 (10: 100%) | 10 (10: 100%) | 10 (10: 100%) | herbicidal efficacy, Digitaria ciliaris (Digitaria ciliaris [7]): 10 (10: 100%); herbicidal efficacy, Galinsoga parviflora (Galinsoga parviflora): 10 (10: 100%) |
